Measurements as given in US10610506B2 (UCL Business PLC, priority 2004, dated 2020).
Entries after “also recorded” stand apart in the source; their conditions may differ.

What was measured:
neutrophils [1] = conditions: blood incubated 1 hour with increasing concentrations of ammonia; 10 ng/ml IL-8 (FIG. 3)
Protocol: Neutrophil Chemotaxis: Neutrophil chemotaxis was measured using a modified Boyden chamber method using interleukin-8 as chemo-attractant to stimulate chemokinesis.
(§1) Blood was collected from healthy volunteers (n=15) and incubated for 1 hour with increasing concentrations of ammonia. The ability of the neutrophils to phagocytose bacteria was measured using the Phagotest and Neutrophil chemotaxis assays. 10 ng/ml IL-8 was used in the Neutrophil chemotaxis assay.

neutrophils [2] = experiment: Phagotest neutrophil phagocytosis, blood incubated with ammonia and amino acids; assay type: cell-based, human
Protocol: Methods for Measurement of Neutrophil Phagocytosis and oxidative burst Phagotest: Heparinised whole blood was incubated with opsonised FITC-labelled E coil and CD16. The cells were then analysed by flow cytometry (FACScan Becton Dickinson), gated through forward and side scatter and subsequently assessed on the basis of R-phycoerythrin (PE) [Immunotech, Marseille, France] flurochrome expression to identify CD16 positive cells. The gated population was then assessed for the presence of FITC-labelled bacteria.
as §1
Blood was collected from healthy volunteers (n=15) and incubated for 1 hour with ammonia and selected amino acids. The ability of the neutrophils to phagocytose bacteria was measured using the Phagotest assay.

[3] = test system: patients with cirrhosis admitted for management of variceal bleeding; experiment: Open labelled study of isoleucine and OIP after variceal bleeding; assay type: in vivo, human
Protocol: • 1. Groups—2 patients per group. Total 6 • 2. Inclusion criteria • Adult patients aged 18-80 years, liver cirrhosis documented by histology or clinical criteria, Child B or C, recent Gastrointestinal bleed from varices (<6 hours after presentation), informed consent/assent. • 3. Exclusion criteria • other concomitant neurological disorder, use of another specific ammonia lowering drug, respiratory failure requiring mechanical ventilation and sedation, uncontrolled gastrointestinal bleeding, hypotension requiring inotropes, overt renal failure (creatinine >2 nag/dl), hemodialysis, extracorporeal liver support, known hypersensitivity to any of the study drugs, pregnancy/lactation. Methods
In an open labelled study, we included 6 patients with cirrhosis and who were admitted for management of variceal bleeding. They were matched for the severity of liver disease (see Table 4). They were treated with one of the following regimes for a 3 day period and observations were made for 5 days. The study groups were:
i. Placebo: 5% Dextrose over 4 hours (250 ml)
ii. Isoleucine alone: 10 gm IV in 250 ml 5% Dextrose over 2 hours in two divided doses.
Patients were fasted overnight between 0000 midnight and 0800 am. They were fed intragastrically with a diet of 25 KCal/Kg that included 1 g/Kg protein diet starting at 0800 and finishing at midnight. Blood was sampled at 0730 am and then at 1800 hr for the measurement of ammonia and glutamine. Patients were monitored closely for side effects. The drug was tolerated well in each of the groups and no adverse events were observed. Because the patients received sedation for their initial endoscopy, the mental state assessment was impossible to interpret. One patient each in the Placebo and the Isoelucine groups died from multiorgan failure in the hospital. The rest of the patients survived.

[4] = test system: patients with biopsy proven cirrhosis of the liver; experiment: Simulated gastrointestinal bleed in cirrhotic patients, neutrophil chemotaxis with isoleucine infusion; assay type: in vivo, human; conditions: after simulated bleed (75 g amino acid mixture), isoleucine iv over 2 hours
Description: Ten overnight fasted, metabolically stable patients with biopsy proven cirrhosis of the liver [9 males and 1 female; mean 49.6 years (SEM 9.1); mean Child-Pugh score of 7.8 (SEM 1.2)] were studied prior to and two hours after an oral administration of 75 grams of an amino acid mixture that mimics the hemoglobin molecule (Nutricia, Cuijk, Netherlands). In seven other patients [4 male and 3 female; mean 51.4 years (SEM 6.7); mean Child-Pugh score of 8.1 (SEM 1.4)], following administration of the amino acid mixture, isoleucine was administered intravenously over a 2 hour period (iso-osmotic solution containing 40 mg/l of isoleucine at a rate of 100 ml/hr). Neutrophil chemotaxis (see Example 1 for method) and plasma ammonia were measured in peripheral venous blood samples.

[5] = test system: patients with biopsy-proven cirrhosis of the liver; experiment: Simulated bleed with isoleucine supplementation: protein kinetics (Phe model) and ammonia; assay type: in vivo, human; conditions: for Net Balance / Protein breakdown / Protein synthesis: mean ± SEM
Protocol: Sixteen metabolically stable patients with biopsy-proven cirrhosis of the liver were studied. Patients were randomized either to supplementation with isoleucine (40 mg/L solution; 50 ml/hr) or placebo during a simulated bleed over a 4-hour period. Protein synthesis (measured using primed continuous infusion of L-[ring-^2H5]phenylalanine), L-[ring-^2H4]tyrosine and L[ring-^2H2]tyrosine) and ammonia.

[6] = test system: patients with cirrhosis and hyperammonemia; experiment: Open labelled study of ornithine, phenylbutyrate and OP in hepatic encephalopathy; assay type: in vivo, human; conditions: for mean ammonia levels: over the period of treatment (FIG. 11); for mean glutamine levels: over the period of treatment (FIG. 12)
Description: • 1. Groups-3 patients per group. Total 12. • 2. Inclusion criteria • adult patients aged 18-80 years, —liver cirrhosis documented by histology or clinical criteria • HE type C, ammonia concentration of >80 umol/L, informed consent/assent • 3. Exclusion criteria • other concomitant neurological disorder, —use of another specific ammonia lowering drug, —respiratory failure requiring mechanical ventilation and sedation, —uncontrolled gastrointestinal bleeding, —hypotension requiring inotropes, overt renal failure (creatinine >2 mg/dl), hemodialysis, —extracorporeal liver support, known hypersensitivity to any of the study drugs, —pregnancy. Assessment of Mental State
In an open labelled study, we included 8 patients with cirrhosis and hyperammonemia. They were matched for the severity of liver disease (see Table 3). They were treated with one of the following regimes for a 3 day period and observations were made for 5 days. The study groups were:
(i) Placebo: 5% Dextrose over 4 hours;
(iii) Phenylbutyrate: 10 g twice daily, orally (0800 and 1600); and
Patients were fasted overnight between 0000 midnight and 0800 am. They were fed intragastrically with a diet of 25 KCal/Kg that included 1 g/Kg protein diet starting at 0800 and finishing at midnight. Blood was sampled at 0730 am and then at 1800 hr for the measurement of ammonia and glutamine. Patients were monitored closely for side effects.

[7] = test system: devascularized pig model of acute liver failure; experiment: Devascularized pig model of acute liver failure; assay type: in vivo, pigs; conditions: for muscle ammonia uptake/production (femoral vein-artery): FIG. 23
Protocol: Pigs had catheters inserted into the femoral artery and vein, portal vein, renal vein and pulmonary artery. The experiment started at time=−1 hr, when placebo or treatment infusions were started.
1. Placebo: 5% Dextrose over 3 hours, oral water placebo
At the end of the experiment a section of frontal cortex was removed for brain water measurements.

[8] = test system: patients with advanced cirrhosis; experiment: Aspartate accumulation during L-ornithine L-aspartate treatment; assay type: in vivo, human
[9] = test system: patients with HE grade 3 undergoing heamofiltration; experiment: LOLA infusion in patients undergoing heamofiltration (CVVH); assay type: in vivo, human
Description: (§2) Blood was sampled for the measurement of ammonia and glutamine.

patients with cirrhosis = experiment: LOLA infusion in cirrhosis with HE: ammonia and glutamine; assay type: in vivo, human
Description: as §2

BDL cirrhotic rats = experiment: Bile duct ligated rat model, IP ornithine, phenylbutyrate, OP; assay type: in vivo, Sprague-Dawley rats
Protocol: Male Sprague-Dawley rats (200-250 g) were used for this procedure. Following anaesthetisation, a mid-line laparotamy was performed, the bile duct was exposed, triply ligated with 4.0 silk suture, and severed between the second and third ligature. The wound was closed in layers with absorbable suture, and the animal allowed to recover in a quiet room before being returned to the animal storage facility. Animals were kept at a constant temperature (20° C.) in a 12 hour light/dark cycle with access to water and standard rodent chow ad libitum. […] At six weeks, under anaesthesia a right carotid arterial catheter was inserted and used to collect repeated blood samples. Following this procedure a baseline sample was collected prior to administration of the study formulations by IP injection. […] Blood samples were collected into pre-cooled […] tubes and stored on ice prior to processing. Plasma was collected following centrifugation (3,000 rpm, 10 mins) and stored at -80° C. prior to analyses. Ammonia, glucose, lactate and urea were measured using a COBRAS Mira S according to manufacturers instructions. Amino acids were quantified by HPLC with fluorescence detection.

[10] = LOLA 40 g over 8 hours (FIG. 8)

## N [ammonia]
Neutrophils [1]
  neutrophil chemotaxis: significant reduction
Neutrophils [2]; blood of healthy volunteers incubated 1 hour with increasing concentrations of ammonia (FIG. 2)
  neutrophil phagocytosis: significant reduction

## NC(=O)CC[C@H](N)C(=O)O [glutamine]
Neutrophils [2]; blood incubated 1 hour with ammonia and selected amino acid (FIG. 4)
  ammonia-induced reduction in neutrophil phagocytosis: partially reversed

## CC[C@H](C)[C@H](N)C(=O)O [isoleucine]
[3]; 2 patients per group
  patients died from multiorgan failure in the hospital: One
[3]; FIG. 14
  ammonia concentrations: no significant changes
[3]; FIG. 15
  glutamine levels: not significantly altered
[3]; individual patients P3-P6, listed as Isoleucine alone
  Dead/Alive: P3: A; also recorded: P4: D
[4]
  neutrophil chemotaxis: 25.4 (±6.0) cells/high power field
[5]; Leg, End
  Net Balance: 261 ± 102 nmol/kg body cell mass/min
  Protein breakdown: 159 ± 100 nmol/kg body cell mass/min
  Protein synthesis: 377 ± 135 nmol/kg body cell mass/min
[5]; Leg, t = 0 hours
  Net Balance: −185 ± 152 nmol/kg body cell mass/min
  Protein breakdown: 196 ± 61 nmol/kg body cell mass/min
  Protein synthesis: −31 ± 201 nmol/kg body cell mass/min
[5]; Liver, End (final hour of amino acid infusion)
  Protein synthesis: 839 ± 221 nmol/kg body cell mass/min
[5]; Liver, End
  Net Balance: 682 ± 165 nmol/kg body cell mass/min
  Protein breakdown: 157 ± 204 nmol/kg body cell mass/min
[5]; Liver, t = 0 hours
  Net Balance: 98 ± 33 nmol/kg body cell mass/min
  Protein breakdown: 109 ± 25 nmol/kg body cell mass/min
  Protein synthesis: 218 ± 37 nmol/kg body cell mass/min
[5]; isoleucine infusion during simulated bleed
  protein synthesis of liver and muscle: restores impaired protein synthesis
[5]; simulated bleed over 4 hours (FIG. 7)
  ammonia concentration, isoleucine versus placebo: not significantly different

## NCCC[C@H](N)C(=O)O [ornithine]
[6]
  mean ammonia levels: increased from baseline values
  mean glutamine levels: increase
[3]; over the course of OIP treatment, reduced to basal values on stopping the drug (FIG. 18)
  Ornithine levels: marked sustained increase
[7]; FIG. 27
  arterial ornithine levels: increase

## L-ornithine L-aspartate [LOLA]
[8]; Day 1, 40 g/day
  ASPARTATE concentration: 178 µmol/L
[8]; Day 2, 40 g/day
  ASPARTATE concentration: 289 µmol/L
[8]; Day 3, 40 g/day
  ASPARTATE concentration: 354 µmol/L
[8]; PRE, 40 g/day L-ornithine L-aspartate
  ASPARTATE concentration: 72 µmol/L
[8]; over a 3 day period
  increase in the aspartate concentration: 5 times the basal value
[9]; LOLA 40 g over 8 hours with CVVH (FIG. 9)
  ammonia concentration: reduction
[9]; LOLA with addition of dialysis (FIG. 9)
  glutamine concentration: prevented the concomitant increase
Patients with cirrhosis; LOLA 40 g over 8 hours
  severity of HE: beneficial effects
Patients with cirrhosis; [10]
  ammonia concentration: significant reduction
  glutamine concentration: concomitant rise
Patients with cirrhosis; after LOLA was stopped
  recurrence of HE: 3 of the 6
Patients with cirrhosis; after stopping infusion
  circulating ammonia levels when LOLA was stopped: rebound increase

## phenylbutyrate
[6]; individual patients P3-P8, listed as Phenylbutyrate alone
  Dead/Alive: P5: A; also recorded: P6: A
[6]
  mean ammonia levels: increased from baseline values
  mean glutamine levels: reduction
BDL cirrhotic rats; after 1 hour, p<0.01 vs all other groups
  plasma ammonia: significant increase
BDL cirrhotic rats; three hour time point / end of the study
  plasma ammonia: difference was found to be smaller
[7]; 0.3 g/Kg each over 3 hours, to experiment termination (FIG. 22), listed as Phenylbutyrate alone
  arterial ammonia: initial blunting of arterial ammonia levels, which quickly rises to levels comparable with ornithine alone at experiment termination; also recorded: insignificant effects
[7]; listed as P alone
  muscle ammonia uptake/production (femoral vein-artery): increase in ammonia production by the muscle
[7]; listed as Phenylbutyrate alone
  muscle ammonia uptake/production (femoral vein-artery): little change
[7]; FIG. 24
  gut ammonia production (portal drained viscera-artery): appreciable
[7]; FIG. 25, listed as Phenylbutyrate alone
  muscle glutamine release: net removal
[7]; FIG. 26
  gut glutamine uptake: little overt effect
[7]; FIG. 28
  arterial glutamine levels: marginally increases
